Values after ≈ are worked out from the molar mass of the structure shown.
Experiments:
Pseudomonas aeruginosa [1] = test: Antimicrobial activity against Pseudomonas aeruginosa isolate 3149 from fibrosis patient by Etest; assay type: functional
Pseudomonas aeruginosa [2] = test: microbe, parasite or virus in culture; details: 2779-con
Description: Antimicrobial activity against Pseudomonas aeruginosa 2779-con by Etest

Pseudomonas aeruginosa [3] = test: Antimicrobial activity against Pseudomonas aeruginosa Z799/61 by Etest; assay type: functional
Pseudomonas aeruginosa [4] = test: Antimicrobial activity against Pseudomonas aeruginosa isolate 1712c from fibrosis patient by Etest; assay type: functional
Pseudomonas aeruginosa [5] = test: Antimicrobial activity against Pseudomonas aeruginosa isolate 1693c from fibrosis patient by Etest; assay type: functional
Pseudomonas aeruginosa [6] = test: Antimicrobial activity against Pseudomonas aeruginosa isolate 1530c from fibrosis patient by Etest; assay type: functional
Pseudomonas aeruginosa [7] = test: Antimicrobial activity against Pseudomonas aeruginosa isolate 1253 from fibrosis patient by Etest; assay type: functional
Pseudomonas aeruginosa [8] = test: Antimicrobial activity against Pseudomonas aeruginosa isolate 1726 from fibrosis patient by Etest; assay type: functional
Pseudomonas aeruginosa [9] = test: Antimicrobial activity against Pseudomonas aeruginosa isolate 13167 from fibrosis patient by Etest; assay type: functional
Pseudomonas aeruginosa [10] = test: microbe, parasite or virus in culture; details: isolate 13120
Description: Antimicrobial activity against Pseudomonas aeruginosa isolate 13120 from fibrosis patient by Etest

Pseudomonas aeruginosa [11] = test: Antimicrobial activity against Pseudomonas aeruginosa isolate 1495c from fibrosis patient by Etest; assay type: functional
Pseudomonas aeruginosa [12] = test: Antimicrobial activity against Pseudomonas aeruginosa isolate 1247c from fibrosis patient by Etest; assay type: functional
Pseudomonas aeruginosa [13] = test: Antimicrobial activity against Pseudomonas aeruginosa isolate 15110c from fibrosis patient by Etest; assay type: functional
Pseudomonas aeruginosa [14] = test: Antimicrobial activity against Pseudomonas aeruginosa M1251 by Etest
Pseudomonas aeruginosa [15] = test: Antimicrobial activity against Pseudomonas aeruginosa isolate 16008 from fibrosis patient by Etest; assay type: functional
Pseudomonas aeruginosa [16] = test: Antimicrobial activity against Pseudomonas aeruginosa isolate 17112 from fibrosis patient by Etest; assay type: functional
Pseudomonas aeruginosa [17] = test: Antimicrobial activity against Pseudomonas aeruginosa isolate 1529c from fibrosis patient by Etest; assay type: functional
Pseudomonas aeruginosa [18] = test: Antimicrobial activity against Pseudomonas aeruginosa isolate 12142c from fibrosis patient by Etest; assay type: functional
Pseudomonas aeruginosa [19] = test: Antimicrobial activity against Pseudomonas aeruginosa isolate 1352c from fibrosis patient by Etest; assay type: functional
Pseudomonas aeruginosa [20] = test: Antimicrobial activity against Pseudomonas aeruginosa isolate 1248c from fibrosis patient by Etest; assay type: functional
Pseudomonas aeruginosa [21] = test: Antimicrobial activity against Pseudomonas aeruginosa isolate 1681c from fibrosis patient by Etest; assay type: functional
Pseudomonas aeruginosa [22] = test: Antimicrobial activity against Pseudomonas aeruginosa isolate 17145c from fibrosis patient by Etest; assay type: functional
Pseudomonas aeruginosa [23] = test: Antimicrobial activity against Pseudomonas aeruginosa isolate 1240 from fibrosis patient by Etest; assay type: functional
Pseudomonas aeruginosa [24] = test: Antimicrobial activity against Pseudomonas aeruginosa isolate 1665 from fibrosis patient by Etest; assay type: functional
Pseudomonas aeruginosa [25] = test: Antimicrobial activity against Pseudomonas aeruginosa AHP Etest; assay type: functional
Pseudomonas aeruginosa [26] = test: Antimicrobial activity against Pseudomonas aeruginosa isolate 15107 from fibrosis patient by Etest; assay type: functional
Pseudomonas aeruginosa [27] = test: Antimicrobial activity against Pseudomonas aeruginosa R20 Etest; assay type: functional
Pseudomonas aeruginosa [28] = test: Antimicrobial activity against Pseudomonas aeruginosa isolate 14169c from fibrosis patient by Etest; assay type: functional
Pseudomonas aeruginosa [29] = test: Antimicrobial activity against Pseudomonas aeruginosa isolate 1333c from fibrosis patient by Etest; assay type: functional
Pseudomonas aeruginosa [30] = test: Antimicrobial activity against Pseudomonas aeruginosa R70 Etest; assay type: functional
Pseudomonas aeruginosa [31] = test: Antimicrobial activity against Pseudomonas aeruginosa 1405-con D2 by Etest; assay type: functional
Pseudomonas aeruginosa [32] = test: Antimicrobial activity against Pseudomonas aeruginosa isolate 12102 from fibrosis patient by Etest; assay type: functional

Row | Structure (SMILES) | MIC (Pseudomonas aeruginosa [1]) [µg/mL] | MIC (Pseudomonas aeruginosa [2]) [µg/mL] | MIC (Pseudomonas aeruginosa [3]) [µg/mL] | MIC (Pseudomonas aeruginosa [4]) [µg/mL] | MIC (Pseudomonas aeruginosa [5]) [µg/mL] | MIC (Pseudomonas aeruginosa [6]) [µg/mL] | MIC (Pseudomonas aeruginosa [7]) [µg/mL] | MIC (Pseudomonas aeruginosa [8]) [µg/mL] | MIC (Pseudomonas aeruginosa [9]) [µg/mL] | MIC (Pseudomonas aeruginosa [10]) [µg/mL] | MIC (Pseudomonas aeruginosa [11]) [µg/mL] | MIC (Pseudomonas aeruginosa [12]) [µg/mL] | MIC (Pseudomonas aeruginosa [13]) [µg/mL] | MIC (Pseudomonas aeruginosa [14]) [µg/mL] | MIC (Pseudomonas aeruginosa [15]) [µg/mL] | MIC (Pseudomonas aeruginosa [18]) [µg/mL] | MIC (Pseudomonas aeruginosa [20]) [µg/mL] | MIC (Pseudomonas aeruginosa [22]) [µg/mL] | MIC (Pseudomonas aeruginosa [24]) [µg/mL] | MIC (Pseudomonas aeruginosa [25]) [µg/mL] | other results
1 | C[C@H]1[C@H](NC(=O)/C(=N\OC(C)(C)C(=O)O)c2csc(N)n2)C(=O)N1S(=O)(=O)O [AZTREONAM] | 64 (≈ 147 µM) | 32 (≈ 73.5 µM) | ≤ 0.12 | > 64 | 1 (≈ 2.3 µM) | 2 (≈ 4.59 µM) | 16 (≈ 36.7 µM) | 0.5 (≈ 1.15 µM) | 16 (≈ 36.7 µM) | 16 (≈ 36.7 µM) | > 64 | 4 (≈ 9.19 µM) | > 64 | 32 (≈ 73.5 µM) | 0.5 (≈ 1.15 µM) | > 64 | > 64 | 0.5 (≈ 1.15 µM) | > 64 | 0.5 (≈ 1.15 µM) | MIC (Pseudomonas aeruginosa [16]): > 64 µg/mL; MIC (Pseudomonas aeruginosa [17]): 0.5 µg/mL (≈ 1.15 µM); MIC (Pseudomonas aeruginosa [19]): 32 µg/mL (≈ 73.5 µM); MIC (Pseudomonas aeruginosa [21]): 32 µg/mL (≈ 73.5 µM); MIC (Pseudomonas aeruginosa [23]): 4 µg/mL (≈ 9.19 µM); MIC (Pseudomonas aeruginosa [26]): 2 µg/mL (≈ 4.59 µM)
2 | O=C(O)c1cn(C2CC2)c2cc(N3CCNCC3)c(F)cc2c1=O [CIPROFLOXACIN] | > 8 | ≤ 0.12 | ≤ 0.12 | 4 (≈ 12.1 µM) | 1 (≈ 3.02 µM) |  |  |  |  |  | 4 (≈ 12.1 µM) | 4 (≈ 12.1 µM) |  |  | 4 (≈ 12.1 µM) | 4 (≈ 12.1 µM) | 4 (≈ 12.1 µM) | 4 (≈ 12.1 µM) | 4 (≈ 12.1 µM) | ≤ 0.12 | MIC (Pseudomonas aeruginosa [27]): ≤ 0.12 µg/mL; MIC (Pseudomonas aeruginosa [28]): 1 µg/mL (≈ 3.02 µM)
3 | CC1(C)S[C@@H]2[C@H](NC(=O)C(C(=O)O)c3ccccc3)C(=O)N2[C@H]1C(=O)O (some centres not stated) [CARBENICILLIN] | > 512 | 128 (≈ 338 µM) | ≤ 16 | > 512 | 128 (≈ 338 µM) | 64 (≈ 169 µM) | 256 (≈ 677 µM) | ≤ 16 | > 512 | 256 (≈ 677 µM) | > 512 | 128 (≈ 338 µM) | > 512 | 512 (≈ 1350 µM) | ≤ 16 | > 512 | > 512 | ≤ 16 | > 512 | 32 (≈ 84.6 µM) | MIC (Pseudomonas aeruginosa [29]): > 512 µg/mL; MIC (Pseudomonas aeruginosa [30]): > 512 µg/mL; MIC (Pseudomonas aeruginosa [31]): 512 µg/mL (≈ 1350 µM); MIC (Pseudomonas aeruginosa [16]): 512 µg/mL (≈ 1350 µM); MIC (Pseudomonas aeruginosa [17]): 8 µg/mL (≈ 21.1 µM); MIC (Pseudomonas aeruginosa [27]): 64 µg/mL (≈ 169 µM); MIC (Pseudomonas aeruginosa [19]): 512 µg/mL (≈ 1350 µM); MIC (Pseudomonas aeruginosa [21]): 512 µg/mL (≈ 1350 µM); MIC (Pseudomonas aeruginosa [32]): 256 µg/mL (≈ 677 µM); MIC (Pseudomonas aeruginosa [28]): 512 µg/mL (≈ 1350 µM); MIC (Pseudomonas aeruginosa [23]): 128 µg/mL (≈ 338 µM); MIC (Pseudomonas aeruginosa [26]): 128 µg/mL (≈ 338 µM)
4 | CO/N=C(\C(=O)N[C@@H]1C(=O)N2C(C(=O)O)=C(COC(C)=O)CS[C@H]12)c1csc(N)n1 [CEFOTAXIME] | 64 (≈ 141 µM) | > 256 | 0.5 (≈ 1.1 µM) | > 256 | 128 (≈ 281 µM) | 32 (≈ 70.3 µM) | 128 (≈ 281 µM) | 16 (≈ 35.1 µM) | > 256 | 128 (≈ 281 µM) | > 256 | 128 (≈ 281 µM) | > 256 | 128 (≈ 281 µM) | 64 (≈ 141 µM) | > 256 | > 256 | 128 (≈ 281 µM) | > 256 | 4 (≈ 8.78 µM) | MIC (Pseudomonas aeruginosa [29]): > 256 µg/mL; MIC (Pseudomonas aeruginosa [30]): 256 µg/mL (≈ 562 µM); MIC (Pseudomonas aeruginosa [31]): > 256 µg/mL; MIC (Pseudomonas aeruginosa [16]): > 256 µg/mL; MIC (Pseudomonas aeruginosa [17]): 32 µg/mL (≈ 70.3 µM); MIC (Pseudomonas aeruginosa [27]): 4 µg/mL (≈ 8.78 µM); MIC (Pseudomonas aeruginosa [19]): > 256 µg/mL; MIC (Pseudomonas aeruginosa [21]): > 256 µg/mL; MIC (Pseudomonas aeruginosa [32]): 64 µg/mL (≈ 141 µM); MIC (Pseudomonas aeruginosa [28]): 128 µg/mL (≈ 281 µM); MIC (Pseudomonas aeruginosa [23]): 256 µg/mL (≈ 562 µM); MIC (Pseudomonas aeruginosa [26]): 256 µg/mL (≈ 562 µM)
5 | NC[C@H]1O[C@H](O[C@H]2[C@H](O)[C@@H](O[C@H]3O[C@H](CO)[C@@H](O)[C@H](N)[C@H]3O)[C@H](N)C[C@@H]2N)[C@H](N)C[C@@H]1O [TOBRAMYCIN] | > 32 | 1 (≈ 2.14 µM) | 0.25 (≈ 0.535 µM) | 16 (≈ 34.2 µM) | 2 (≈ 4.28 µM) | 4 (≈ 8.56 µM) | 4 (≈ 8.56 µM) | 0.5 (≈ 1.07 µM) | 4 (≈ 8.56 µM) | 0.25 (≈ 0.535 µM) | 8 (≈ 17.1 µM) | 8 (≈ 17.1 µM) | > 32 | 0.25 (≈ 0.535 µM) | 4 (≈ 8.56 µM) | > 32 | 32 (≈ 68.4 µM) | 16 (≈ 34.2 µM) | 32 (≈ 68.4 µM) | ≤ 0.12 | MIC (Pseudomonas aeruginosa [29]): 8 µg/mL (≈ 17.1 µM); MIC (Pseudomonas aeruginosa [30]): 0.5 µg/mL (≈ 1.07 µM); MIC (Pseudomonas aeruginosa [31]): 2 µg/mL (≈ 4.28 µM); MIC (Pseudomonas aeruginosa [16]): 0.5 µg/mL (≈ 1.07 µM); MIC (Pseudomonas aeruginosa [17]): 16 µg/mL (≈ 34.2 µM); MIC (Pseudomonas aeruginosa [27]): 0.5 µg/mL (≈ 1.07 µM); MIC (Pseudomonas aeruginosa [19]): 16 µg/mL (≈ 34.2 µM); MIC (Pseudomonas aeruginosa [21]): 16 µg/mL (≈ 34.2 µM); MIC (Pseudomonas aeruginosa [32]): 1 µg/mL (≈ 2.14 µM); MIC (Pseudomonas aeruginosa [28]): 4 µg/mL (≈ 8.56 µM); MIC (Pseudomonas aeruginosa [23]): 0.5 µg/mL (≈ 1.07 µM); MIC (Pseudomonas aeruginosa [26]): 2 µg/mL (≈ 4.28 µM)

Source: ChEMBL document CHEMBL1255447, “Efflux pumps, OprD porin, AmpC beta-lactamase, and multiresistance in Pseudomonas aeruginosa isolates from cystic fibrosis patients” (2010)
